Experimental data as given in ChEMBL document CHEMBL1124466, “Synthesis of 5-[1-hydroxy(or methoxy)-2-bromo(or chloro)ethyl]-2'-deoxyuridines and related halohydrin analogues with antiviral and cytotoxic activity” (1989).
≈ marks a conversion by molar mass, not a printed value.

Tests used:
Assay type in all cases: functional
L1210 [1] = test: In vitro cytotoxicity against L1210 cells at a dose 50 ug/mL; settings: Mus musculus, read-out: Survival
L1210 [2] = test: In vitro cytotoxicity against L1210 cells at a dose 10 ug/mL; settings: Mus musculus, read-out: Survival
Vero = test: In vitro antiviral activity against herpes simplex virus type-1 in vero cells; settings: Chlorocebus sabaeus, read-out: ID50 (the source's name)
L1210 [3] = test: Effective dose against L1210 cells.; settings: Mus musculus, read-out: ED50 (the source's name)

| SMILES | viability at 50 µg/mL (L1210 [1]) [%] | viability at 10 µg/mL (L1210 [2]) [%] | IC50 (Vero) [µg/mL] | EC50 (L1210 [3]) [µg/mL] |
| --- | --- | --- | --- | --- |
| O=c1[nH]c(=O)n([C@H]2C[C@H](O)[C@@H](CO)O2)cc1C(Br)C(O)I.O=c1[nH]c(=O)n([C@H]2C[C@H](O)[C@@H](CO)O2)cc1C(O)C(Br)I (stereo partly specified) | 40.1 | 79.2 | > 10 | – |
| COC(CCl)c1cn([C@H]2C[C@H](O)[C@@H](CO)O2)c(=O)[nH]c1=O (stereo partly specified) | 38.8 | 75 | > 10 | – |
| COC(CBr)c1cn([C@H]2C[C@H](O)[C@@H](CO)O2)c(=O)[nH]c1=O (stereo partly specified) | 11.7 | 80.8 | 0.1 (≈ 0.274 µM) | – |
| O=c1[nH]c(=O)n([C@H]2C[C@H](O)[C@@H](CO)O2)cc1C(O)CCl (stereo partly specified) | 24.3 | 74 | 0.1 (≈ 0.326 µM) | – |
| O=c1[nH]c(=O)n([C@H]2C[C@H](O)[C@@H](CO)O2)cc1C(O)CBr (stereo partly specified) | 23.7 | 65.5 | > 10 | – |
| CCOC(=O)C(Br)C(O)c1cn([C@H]2C[C@H](O)[C@@H](CO)O2)c(=O)[nH]c1=O (stereo partly specified) | 4.9 | 49.7 | 1 (≈ 2.36 µM) | 11 (≈ 26 µM) |
| CCOC(=O)C(I)C(O)c1cn([C@H]2C[C@H](O)[C@@H](CO)O2)c(=O)[nH]c1=O (stereo partly specified) | 10.4 | 73.2 | 0.1 (≈ 0.213 µM) | – |
| Nc1nc2c(ncn2COCCO)c(=O)[nH]1 [ACYCLOVIR] | – | – | 0.01 (≈ 0.0444 µM) | – |
| N[C@@H](Cc1ccc(N(CCCl)CCCl)cc1)C(=O)O [MELPHALAN] | 0 | 2.8 | – | 0.15 (≈ 0.491 µM) |
